The values below come from PubChem BioAssay (NCI).

Values joined by “and” are separate entries in the source; they are usually repeats but may differ in a detail not shown here. Equal entries are not always repeated.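 Each compound was tested at five concentrations against cells in 96-well plates for 48 hours. Abbreviation: GI50, concentration required for 50% inhibition of growth. TGI: concentration producing complete growth inhibition.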

One test has as its system KM12 colon. The experiment in a line: NCI-60 cell line screen, 48 h.
With `O=C(Cl)C1=C(c2ccccc2)C1c1ccccc1` (centres undefined), the TGI was > 100 µM.

On to `c1cnn2ncc(-c3ccnc(Nc4ccc5c(c4)OCCO5)n3)c2c1`, for which the GI50 is 0.07 µM and the TGI came out at 0.303 µM.

Consider `Cc1ccc(-n2nc(C(C)(C)C)cc2NC(=O)NCc2cc(F)ccc2Oc2ccc3c(cnn3CCO)c2)cc1`, for which the GI50 was 0.611 µM and 1.22 µM; the TGI was > 35.8 µM.

As for `COc1ccc2[nH]c(-c3ccc(O)cc3)cc(=O)c2c1`, the TGI stood at 7.09 µM.

On to `Cc1cc(C)n(C2=NS(=O)(=O)c3ccccc3N2C)n1`, for which the TGI is > 100 µM.

With `COc1ccc2c(NCCCCCCNc3c4ccccc4nc4cc(OC)ccc34)c3ccccc3nc2c1`, the TGI was found to be 2.03 µM.

For the compound `COc1cccc2c(=O)c3c(sc12)c(NCCCNCCO)nc1ccccc13`, the GI50 is 1.72 µM and the TGI was 3.23 µM.

On to `O=C1c2cccc3cccc(c23)C(=O)N1O`, for which the TGI was > 100 µM.

On to `O=C(O)c1ccccc1C(=O)c1ccc2c(c1)Cc1ccccc1-2`, for which the TGI is > 100 µM.

Take `CC(=Nc1ccc(S(N)(=O)=O)cc1)c1c(O)[nH]c2ccccc12`: the GI50 is 0.872 µM and the TGI is > 25 µM.

`CCn1c(-c2nonc2N)nc2ccncc21`: the GI50 was > 25 µM and the TGI is > 25 µM.

For `CC(C)[O-].CC(C)[O-].CN(CCN(C)Cc1cc(F)cc(F)c1[O-])Cc1cc(F)cc(F)c1[O-].[Ti+4]`, the GI50 is 0.907 µM and the TGI came to 2.95 µM.

`Clc1ccc2c(c1)N(c1ncnc3ccc(-c4cnc5[nH]ncc5c4)cc13)CC2`: the GI50 is 3.53 µM and the TGI is > 100 µM.

For `Fc1ccc2nc(-c3cc(-c4ccc5c(c4)OCO5)n[nH]3)[nH]c2c1`, the GI50 is 2.49 µM and the TGI was > 32 µM.

Regarding `COC(=O)c1ccc2c(c1)C(=O)c1c-2n(CCCN=[N+]=[N-])c(=O)c2cc([N+](=O)[O-])ccc12`, the GI50 is > 100 µM and the TGI is > 100 µM.

For `CCOC(=O)N1CCN(CCCCCOc2ccccc2C2CCCCC2)CC1`, the GI50 is 7.67 µM and the TGI turned out to be 23.1 µM.

Consider `OCc1ccc(N2CCOCC2)cc1Cl`, for which the GI50 was > 100 µM and the TGI was > 100 µM.

The test system of another test is EKVX NSCLC. Put plainly: NCI-60 cell line screen, 48 h.
Consider `O=C(Cl)C1=C(c2ccccc2)C1c1ccccc1` (centres undefined), for which the TGI is > 100 µM.

For `c1cnn2ncc(-c3ccnc(Nc4ccc5c(c4)OCCO5)n3)c2c1`, the GI50 was 0.0997 µM and the TGI amounted to 1.13 µM.

As to `Cc1ccc(-n2nc(C(C)(C)C)cc2NC(=O)NCc2cc(F)ccc2Oc2ccc3c(cnn3CCO)c2)cc1`, the GI50 was > 10 µM and the TGI was > 10 µM.

Turning to `COc1ccc2[nH]c(-c3ccc(O)cc3)cc(=O)c2c1`, the TGI was > 31.2 µM.

On to `Cc1cc(C)n(C2=NS(=O)(=O)c3ccccc3N2C)n1`, for which the TGI was > 100 µM.

Compound `COc1ccc2c(NCCCCCCNc3c4ccccc4nc4cc(OC)ccc34)c3ccccc3nc2c1` had a TGI of 2.53 µM.

In the case of `COc1cccc2c(=O)c3c(sc12)c(NCCCNCCO)nc1ccccc13`, the GI50 was 1.52 µM and the TGI turned out to be 3.05 µM.

As to `O=C1c2cccc3cccc(c23)C(=O)N1O`, the TGI was > 100 µM.

Regarding `O=C(O)c1ccccc1C(=O)c1ccc2c(c1)Cc1ccccc1-2`, the TGI was > 100 µM.

`CC(=Nc1ccc(S(N)(=O)=O)cc1)c1c(O)[nH]c2ccccc12`: the GI50 was > 25 µM and the TGI is > 25 µM.

As to `CCn1c(-c2nonc2N)nc2ccncc21`, the GI50 is > 25 µM and the TGI was > 25 µM.

In the case of `CC(C)[O-].CC(C)[O-].CN(CCN(C)Cc1cc(F)cc(F)c1[O-])Cc1cc(F)cc(F)c1[O-].[Ti+4]`, the GI50 was 1.31 µM and the TGI turned out to be 10 µM.

For `Clc1ccc2c(c1)N(c1ncnc3ccc(-c4cnc5[nH]ncc5c4)cc13)CC2`, the GI50 was 0.338 µM and the TGI is > 100 µM.

For the compound `COC(=O)c1ccc2c(c1)C(=O)c1c-2n(CCCN=[N+]=[N-])c(=O)c2cc([N+](=O)[O-])ccc12`, the GI50 is 83.5 µM and the TGI was > 100 µM.

Turning to `CCOC(=O)N1CCN(CCCCCOc2ccccc2C2CCCCC2)CC1`, the GI50 is 3.23 µM and the TGI amounted to 16.5 µM.

Take `CCCCCCCCCCCCCC[n+]1cccc(C(N)=O)c1`: the GI50 was 1.97 µM and the TGI was 6.08 µM.

A further test relates to OVCAR-4 ovarian. Put plainly: NCI-60 cell line screen, 48 h.
Regarding `O=C(Cl)C1=C(c2ccccc2)C1c1ccccc1` (centres undefined), the TGI was > 100 µM.

Regarding `c1cnn2ncc(-c3ccnc(Nc4ccc5c(c4)OCCO5)n3)c2c1`, the GI50 was 0.269 µM and the TGI is > 25 µM.

Take `Cc1ccc(-n2nc(C(C)(C)C)cc2NC(=O)NCc2cc(F)ccc2Oc2ccc3c(cnn3CCO)c2)cc1`: the GI50 was > 10 µM and 4.1 µM; the TGI is > 100 µM.

For `COc1ccc2[nH]c(-c3ccc(O)cc3)cc(=O)c2c1`, the TGI is > 100 µM.

On to `Cc1cc(C)n(C2=NS(=O)(=O)c3ccccc3N2C)n1`, for which the TGI was > 100 µM.

Take `COc1ccc2c(NCCCCCCNc3c4ccccc4nc4cc(OC)ccc34)c3ccccc3nc2c1`: the TGI worked out at 0.461 µM.

On to `COc1cccc2c(=O)c3c(sc12)c(NCCCNCCO)nc1ccccc13`, for which the GI50 is 1.63 µM and the TGI turned out to be 3.38 µM.

Consider `O=C1c2cccc3cccc(c23)C(=O)N1O`, for which the TGI was > 100 µM.

`O=C(O)c1ccccc1C(=O)c1ccc2c(c1)Cc1ccccc1-2`: the TGI was > 100 µM.

In the case of `CC(=Nc1ccc(S(N)(=O)=O)cc1)c1c(O)[nH]c2ccccc12`, the GI50 was > 25 µM and the TGI is > 25 µM.

As to `CCn1c(-c2nonc2N)nc2ccncc21`, the GI50 was > 25 µM and the TGI is > 25 µM.

On to `CC(C)[O-].CC(C)[O-].CN(CCN(C)Cc1cc(F)cc(F)c1[O-])Cc1cc(F)cc(F)c1[O-].[Ti+4]`, for which the GI50 was 0.717 µM and the TGI was determined as 7.18 µM.

Regarding `Clc1ccc2c(c1)N(c1ncnc3ccc(-c4cnc5[nH]ncc5c4)cc13)CC2`, the GI50 is 0.747 µM and the TGI was > 100 µM.

As to `Fc1ccc2nc(-c3cc(-c4ccc5c(c4)OCO5)n[nH]3)[nH]c2c1`, the GI50 is 1.37 µM and the TGI was 4.8 µM.

In the case of `COC(=O)c1ccc2c(c1)C(=O)c1c-2n(CCCN=[N+]=[N-])c(=O)c2cc([N+](=O)[O-])ccc12`, the GI50 is > 100 µM and the TGI is > 100 µM.

With `CCOC(=O)N1CCN(CCCCCOc2ccccc2C2CCCCC2)CC1`, the GI50 was 9.2 µM and the TGI was 22.2 µM.

In the case of `CCCCCCCCCCCCCC[n+]1cccc(C(N)=O)c1`, the GI50 is 3.73 µM and the TGI was determined as 19.6 µM.

Take `OCc1ccc(N2CCOCC2)cc1Cl`: the GI50 was 55.6 µM and the TGI is > 100 µM.

A further test concerns SN12C renal. The experiment in a line: NCI-60 cell line screen, 48 h.
With `O=C(Cl)C1=C(c2ccccc2)C1c1ccccc1` (centres undefined), the TGI was > 100 µM.

For the compound `c1cnn2ncc(-c3ccnc(Nc4ccc5c(c4)OCCO5)n3)c2c1`, the GI50 is 0.0875 µM and the TGI is > 25 µM.

Turning to `Cc1ccc(-n2nc(C(C)(C)C)cc2NC(=O)NCc2cc(F)ccc2Oc2ccc3c(cnn3CCO)c2)cc1`, the GI50 was > 10 µM and 6.27 µM; the TGI was > 100 µM.

In turn, `COc1ccc2[nH]c(-c3ccc(O)cc3)cc(=O)c2c1` registered a TGI of 54.2 µM.

Turning to `Cc1cc(C)n(C2=NS(=O)(=O)c3ccccc3N2C)n1`, the TGI is > 100 µM.

On to `COc1ccc2c(NCCCCCCNc3c4ccccc4nc4cc(OC)ccc34)c3ccccc3nc2c1`, for which the TGI is 1.49 µM.

With `COc1cccc2c(=O)c3c(sc12)c(NCCCNCCO)nc1ccccc13`, the GI50 is 1.51 µM and the TGI was 3.06 µM.

As for `O=C1c2cccc3cccc(c23)C(=O)N1O`, the TGI is > 100 µM.

As to `O=C(O)c1ccccc1C(=O)c1ccc2c(c1)Cc1ccccc1-2`, the TGI is > 100 µM.

As for `CC(=Nc1ccc(S(N)(=O)=O)cc1)c1c(O)[nH]c2ccccc12`, the GI50 is > 25 µM and the TGI was > 25 µM.

With `CCn1c(-c2nonc2N)nc2ccncc21`, the GI50 is > 25 µM and the TGI was > 25 µM.

Take `CC(C)[O-].CC(C)[O-].CN(CCN(C)Cc1cc(F)cc(F)c1[O-])Cc1cc(F)cc(F)c1[O-].[Ti+4]`: the GI50 was 1.53 µM and the TGI came to 7.31 µM.

As for `Clc1ccc2c(c1)N(c1ncnc3ccc(-c4cnc5[nH]ncc5c4)cc13)CC2`, the GI50 was 0.407 µM and the TGI is > 100 µM.

Turning to `Fc1ccc2nc(-c3cc(-c4ccc5c(c4)OCO5)n[nH]3)[nH]c2c1`, the GI50 was 4.59 µM and the TGI was > 100 µM.

Consider `COC(=O)c1ccc2c(c1)C(=O)c1c-2n(CCCN=[N+]=[N-])c(=O)c2cc([N+](=O)[O-])ccc12`, for which the GI50 is > 100 µM and the TGI is > 100 µM.

As to `CCOC(=O)N1CCN(CCCCCOc2ccccc2C2CCCCC2)CC1`, the GI50 was 6.34 µM and the TGI was 22.2 µM.

On to `CCCCCCCCCCCCCC[n+]1cccc(C(N)=O)c1`, for which the GI50 was 1.86 µM and the TGI was 8.34 µM.

For `OCc1ccc(N2CCOCC2)cc1Cl`, the GI50 is > 100 µM and the TGI was > 100 µM.

The next test relates to HCT-116 colon. Put plainly: NCI-60 cell line screen, 48 h.
With `O=C(Cl)C1=C(c2ccccc2)C1c1ccccc1` (centres undefined), the TGI is > 100 µM.

For `c1cnn2ncc(-c3ccnc(Nc4ccc5c(c4)OCCO5)n3)c2c1`, the GI50 is 0.0533 µM and the TGI worked out at 1.04 µM.

For `Cc1ccc(-n2nc(C(C)(C)C)cc2NC(=O)NCc2cc(F)ccc2Oc2ccc3c(cnn3CCO)c2)cc1`, the GI50 was 2.34 µM and 2.46 µM; the TGI was > 36.3 µM.

In turn, `COc1ccc2[nH]c(-c3ccc(O)cc3)cc(=O)c2c1` came in with a TGI of 10.4 µM.

As for `Cc1cc(C)n(C2=NS(=O)(=O)c3ccccc3N2C)n1`, the TGI is > 100 µM.

On to `COc1ccc2c(NCCCCCCNc3c4ccccc4nc4cc(OC)ccc34)c3ccccc3nc2c1`, for which the TGI was 0.333 µM.

For the compound `COc1cccc2c(=O)c3c(sc12)c(NCCCNCCO)nc1ccccc13`, the GI50 is 1.41 µM and the TGI was determined as 2.74 µM.

`O=C1c2cccc3cccc(c23)C(=O)N1O`: the TGI is > 100 µM.

Take `O=C(O)c1ccccc1C(=O)c1ccc2c(c1)Cc1ccccc1-2`: the TGI is > 100 µM.

As to `CC(=Nc1ccc(S(N)(=O)=O)cc1)c1c(O)[nH]c2ccccc12`, the GI50 is > 22.8 µM and the TGI is > 25 µM.

Regarding `CCn1c(-c2nonc2N)nc2ccncc21`, the GI50 is > 25 µM and the TGI is > 25 µM.

For `CC(C)[O-].CC(C)[O-].CN(CCN(C)Cc1cc(F)cc(F)c1[O-])Cc1cc(F)cc(F)c1[O-].[Ti+4]`, the GI50 is 0.792 µM and the TGI is 4.86 µM.

Consider `Clc1ccc2c(c1)N(c1ncnc3ccc(-c4cnc5[nH]ncc5c4)cc13)CC2`, for which the GI50 is 1.15 µM and the TGI was > 100 µM.

Turning to `Fc1ccc2nc(-c3cc(-c4ccc5c(c4)OCO5)n[nH]3)[nH]c2c1`, the GI50 was 3.51 µM and the TGI is > 32.5 µM.

`COC(=O)c1ccc2c(c1)C(=O)c1c-2n(CCCN=[N+]=[N-])c(=O)c2cc([N+](=O)[O-])ccc12`: the GI50 is 47.4 µM and the TGI was > 100 µM.

Take `CCOC(=O)N1CCN(CCCCCOc2ccccc2C2CCCCC2)CC1`: the GI50 was 2.16 µM and the TGI is 9.65 µM.

Turning to `CCCCCCCCCCCCCC[n+]1cccc(C(N)=O)c1`, the GI50 was 1.61 µM and the TGI is 3.97 µM.

For `OCc1ccc(N2CCOCC2)cc1Cl`, the GI50 is 28.6 µM and the TGI is > 100 µM.
